Source: publication PMC10099431 (ACS Omega, 2023)
Read-outs that look alike come from different tables or passages of the source.

How the values were obtained:
[1] = Equilibrium mole fraction solubility of RST in {PEG400; format: physicochemical
[2] = format: physicochemical; details: 298.15 K; for Gibbs energy of transfer of RST from neat water to the mixture / ΔsolnG°, standard Gibbs free energy of dissolution: 0.1 MPa
[3] = format: physicochemical; details: for 100 δx1,3 (preferential solvation parameter of RST by PEG400) / D (derivative of the Gibbs energy of transfer) / G1,3 (Kirkwood–Buff integral, PEG400–RST) / G2,3 (Kirkwood–Buff integral, water–RST) / Vcor (correlation volume): 298.15 K, 0.1 MPa

solubility at 3 days ([1]; PEG400): 6500 µg/mL | solubility at 3 days ([1]; PEG400 + water cosolvent mixture): 4140 µg/mL | Gibbs energy of transfer of RST from neat water to {PEG400 + water} mixtures, range ([2]; all mixtures): −2.39 to −14.24 kJ·mol^–1 | Gibbs energy of transfer of RST from neat water to the mixture ([2]; w1 = 0.00 (neat water)): 0.00 kJ·mol^–1 | ΔsolnG°, standard Gibbs free energy of dissolution ([2]; w1 = 0.00 (neat water)): 32.36 kJ·mol^–1 | Gibbs energy of transfer of RST from neat water to the mixture ([2]; w1 = 0.10 PEG400): –2.39 kJ·mol^–1 | ΔsolnG°, standard Gibbs free energy of dissolution ([2]; w1 = 0.10 PEG400): 29.97 kJ·mol^–1 | Gibbs energy of transfer of RST from neat water to the mixture ([2]; w1 = 0.20 PEG400): –3.53 kJ·mol^–1 | ΔsolnG°, standard Gibbs free energy of dissolution ([2]; w1 = 0.20 PEG400): 28.83 kJ·mol^–1 | Gibbs energy of transfer of RST from neat water to the mixture ([2]; w1 = 0.30 PEG400): –5.49 kJ·mol^–1 | ΔsolnG°, standard Gibbs free energy of dissolution ([2]; w1 = 0.30 PEG400): 26.86 kJ·mol^–1 | Gibbs energy of transfer of RST from neat water to the mixture ([2]; w1 = 0.40 PEG400): –7.93 kJ·mol^–1 | ΔsolnG°, standard Gibbs free energy of dissolution ([2]; w1 = 0.40 PEG400): 24.42 kJ·mol^–1 | Gibbs energy of transfer of RST from neat water to the mixture ([2]; w1 = 0.50 PEG400): –8.49 kJ·mol^–1 | ΔsolnG°, standard Gibbs free energy of dissolution ([2]; w1 = 0.50 PEG400): 23.87 kJ·mol^–1 | Gibbs energy of transfer of RST from neat water to the mixture ([2]; w1 = 0.60 PEG400): –8.94 kJ·mol^–1 | ΔsolnG°, standard Gibbs free energy of dissolution ([2]; w1 = 0.60 PEG400): 23.42 kJ·mol^–1 | Gibbs energy of transfer of RST from neat water to the mixture ([2]; w1 = 0.70 PEG400): –9.46 kJ·mol^–1 | ΔsolnG°, standard Gibbs free energy of dissolution ([2]; w1 = 0.70 PEG400): 22.90 kJ·mol^–1 | Gibbs energy of transfer of RST from neat water to the mixture ([2]; w1 = 0.80 PEG400): –10.34 kJ·mol^–1 | ΔsolnG°, standard Gibbs free energy of dissolution ([2]; w1 = 0.80 PEG400): 22.02 kJ·mol^–1 | ΔsolnG°, standard Gibbs free energy of dissolution ([2]; w1 = 0.90 PEG400): 21.15 kJ·mol^–1 | Gibbs energy of transfer of RST from neat water to the mixture ([2]; w1 = 1.00 (neat PEG400)): –14.24 kJ·mol^–1 | ΔsolnG°, standard Gibbs free energy of dissolution ([2]; w1 = 1.00 (neat PEG400)): 18.12 kJ·mol^–1 | molecular radius r3 ([3]; calculated from molar volume): 0.5 nm | 100 δx1,3 (preferential solvation parameter of RST by PEG400) ([3]; x1 = 0.00): 0.00 | D (derivative of the Gibbs energy of transfer) ([3]; x1 = 0.00): –328.34 kJ·mol^–1 | G1,3 (Kirkwood–Buff integral, PEG400–RST) ([3]; x1 = 0.00): –2707.6 cm^3·mol^–1 | G2,3 (Kirkwood–Buff integral, water–RST) ([3]; x1 = 0.00): –313.7 cm^3·mol^–1 | Vcor (correlation volume) ([3]; x1 = 0.00): 1163 cm^3·mol^–1 | 100 δx1,3 (preferential solvation parameter of RST by PEG400) ([3]; x1 = 0.05): 0.01 | D (derivative of the Gibbs energy of transfer) ([3]; x1 = 0.05): –31.52 kJ·mol^–1 | G1,3 (Kirkwood–Buff integral, PEG400–RST) ([3]; x1 = 0.05): –488.9 cm^3·mol^–1 | G2,3 (Kirkwood–Buff integral, water–RST) ([3]; x1 = 0.05): –491.2 cm^3·mol^–1 | Vcor (correlation volume) ([3]; x1 = 0.05): 1589 cm^3·mol^–1 | 100 δx1,3 (preferential solvation parameter of RST by PEG400) ([3]; x1 = 0.10): 0.31 | D (derivative of the Gibbs energy of transfer) ([3]; x1 = 0.10): –9.90 kJ·mol^–1 | G1,3 (Kirkwood–Buff integral, PEG400–RST) ([3]; x1 = 0.10): –358.4 cm^3·mol^–1 | G2,3 (Kirkwood–Buff integral, water–RST) ([3]; x1 = 0.10): –412.8 cm^3·mol^–1 | Vcor (correlation volume) ([3]; x1 = 0.10): 1980 cm^3·mol^–1 | 100 δx1,3 (preferential solvation parameter of RST by PEG400) ([3]; x1 = 0.15): 0.71 | D (derivative of the Gibbs energy of transfer) ([3]; x1 = 0.15): –10.32 kJ·mol^–1 | G1,3 (Kirkwood–Buff integral, PEG400–RST) ([3]; x1 = 0.15): –353.1 cm^3·mol^–1 | G2,3 (Kirkwood–Buff integral, water–RST) ([3]; x1 = 0.15): –458.2 cm^3·mol^–1 | Vcor (correlation volume) ([3]; x1 = 0.15): 2343 cm^3·mol^–1 | 100 δx1,3 (preferential solvation parameter of RST by PEG400) ([3]; x1 = 0.20): 1.05 | D (derivative of the Gibbs energy of transfer) ([3]; x1 = 0.20): –9.89 kJ·mol^–1 | G1,3 (Kirkwood–Buff integral, PEG400–RST) ([3]; x1 = 0.20): –346.4 cm^3·mol^–1 | G2,3 (Kirkwood–Buff integral, water–RST) ([3]; x1 = 0.20): –492.0 cm^3·mol^–1 | Vcor (correlation volume) ([3]; x1 = 0.20): 2680 cm^3·mol^–1 | 100 δx1,3 (preferential solvation parameter of RST by PEG400) ([3]; x1 = 0.25): 1.29 | D (derivative of the Gibbs energy of transfer) ([3]; x1 = 0.25): –8.96 kJ·mol^–1 | G1,3 (Kirkwood–Buff integral, PEG400–RST) ([3]; x1 = 0.25): –339.9 cm^3·mol^–1 | G2,3 (Kirkwood–Buff integral, water–RST) ([3]; x1 = 0.25): –513.6 cm^3·mol^–1 | Vcor (correlation volume) ([3]; x1 = 0.25): 2997 cm^3·mol^–1 | 100 δx1,3 (preferential solvation parameter of RST by PEG400) ([3]; x1 = 0.30): 1.45 | D (derivative of the Gibbs energy of transfer) ([3]; x1 = 0.30): –7.95 kJ·mol^–1 | G1,3 (Kirkwood–Buff integral, PEG400–RST) ([3]; x1 = 0.30): –334.6 cm^3·mol^–1 | G2,3 (Kirkwood–Buff integral, water–RST) ([3]; x1 = 0.30): –529.0 cm^3·mol^–1 | Vcor (correlation volume) ([3]; x1 = 0.30): 3297 cm^3·mol^–1 | 100 δx1,3 (preferential solvation parameter of RST by PEG400) ([3]; x1 = 0.35): 1.54 | D (derivative of the Gibbs energy of transfer) ([3]; x1 = 0.35): –7.01 kJ·mol^–1 | G1,3 (Kirkwood–Buff integral, PEG400–RST) ([3]; x1 = 0.35): –330.5 cm^3·mol^–1 | G2,3 (Kirkwood–Buff integral, water–RST) ([3]; x1 = 0.35): –542.0 cm^3·mol^–1 | Vcor (correlation volume) ([3]; x1 = 0.35): 3585 cm^3·mol^–1 | 100 δx1,3 (preferential solvation parameter of RST by PEG400) ([3]; x1 = 0.40): 1.60 | D (derivative of the Gibbs energy of transfer) ([3]; x1 = 0.40): –6.19 kJ·mol^–1 | G1,3 (Kirkwood–Buff integral, PEG400–RST) ([3]; x1 = 0.40): –327.6 cm^3·mol^–1 | G2,3 (Kirkwood–Buff integral, water–RST) ([3]; x1 = 0.40): –554.7 cm^3·mol^–1 | Vcor (correlation volume) ([3]; x1 = 0.40): 3863 cm^3·mol^–1
Structure (SMILES): CC(C)c1nc(N(C)S(C)(=O)=O)nc(-c2ccc(F)cc2)c1/C=C/[C@@H](O)C[C@@H](O)CC(=O)[O-].CC(C)c1nc(N(C)S(C)(=O)=O)nc(-c2ccc(F)cc2)c1/C=C/[C@@H](O)C[C@@H](O)CC(=O)[O-].[Ca+2] [RST, (E)-7-[4-(4-fluorophenyl)-6-isopropyl-2-[methyl(methylsulfonyl)amino]pyrimidin-5-yl]-(3R,5S)-3,5-dihydroxyhept-6-enoic acid, calcium salt (2:1)]
